From patent US9475802B2, “Inhibitors of viral replication, their process of preparation and their therapeutical uses” (LABORATOIRE BIODIM, priority 2012, dated 2016)

system: NL4-3 strain of HIV-1; assay: Inhibition of HIV replication: cyto-protection in Cell-Titer-Glo viability assay, MT4 cells infected with NL4-3 virus; type: cell-based; conditions: Human immunodeficiency virus 1, NL43, 120 h, concentration leading to 50% of cyto-protection, 5 days incubation, CellTiter-Glo luminescence
Description: The antiviral activity, particularly against HIV, of compounds according to the invention is evaluated by the protocol described below.
Preparation of Virus Stock of the NL4-3 Strain of HIV-1 (Adachi et al, J Virol, 1986, 59(2):284-91).
The virus was prepared as described in Lopez et al (Lopez et al, Proc Natl Acad Sci USA., 2006, 103(40):14947-52, by transfecting 2×10^6 293 T cells (CRL-1573, ATCC) with following modifications: 6 μg of NL4-3 proviral DNA molecular clone were mixed with Fugene 6 transfection reagent from Roche, and used according to manufacturer's instructions. Forty eight hours later, transfected cell supernatants were harvested, filtered through 0.45-μm-pore-size filters, quantified for HIV-1 p24 antigen by using a Innotest HIV antigen mAb assay (Ingen) according to manufacturer's instructions, and used in infection experiments.
Serial dilutions of compounds to be tested were prepared in complete RPMI medium from 10 mM DMSO stock solutions, and distributed in a volume of 20 μL in 96 well Falcon 353072 Microtest™ tissue culture plate, in order to get 0.5% DMSO final concentration in each well, after the addition of infected cells. Control wells contained also 0.5% DMSO final concentration but no compound.
MT^4 cells (from the NIH AIDS Research and Reference Reagent Program) in RPMI complete medium were counted (10×10^6 cells per well in Falcon 353047 Multiwell™ 24 well) and infected for 2 hours at 37°, at a multiplicity of infection (moi) of 0.0001-0.00001. Cells were then centrifuged 3 min at 3000 rpm, and washed two times in 1 ml PBS to remove viruses that have not entered in cells. Infected cells were resuspended in complete RPMI at 1.25×10^6 cells/ml, and 80 μl of infected cells were distributed in each well containing compounds to be tested or control wells. The plates were then incubated at 37° for 5 days.
Assay Used to Measure the Inhibition of HIV Replication by the Compounds (According to (According to Gregg S. Jones et al., Antimicrobial Agents and Chemotherapy, 2009, 53 (3): 1194-1203).
After 5 days of incubation, 50 μl of CellTiter-Glo reagent (Promega Biosciences, Inc., Madison Wis., USA) were added to each well. Cell lysis was carried out at room temperature during 10 min, 150 μl of lysates were transferred in Packard Optiplate 96 well, and luminescence was read on a Fluoroskan (Thermo Scientific).
The EC50, or effective concentration 50, is the concentration of compound leading to 50% of cyto-protection in a Cell-Titer-Glo® viability assay based on MT^4 cells infected with NL4-3 virus (table 1).

| Structure (SMILES) | EC50 |
| --- | --- |
| Cc1ccc(-c2ccc(=O)n(CC3CCC3)c2)c(-c2ccc3c(c2C)CCCO3)c1C(OC(C)(C)C)C(=O)O (stereo not shown) [Example 37, 2-(tert-butoxy)-2-[3-(1-cyclobutylmethyl-6-oxo-1,6-dihydro-pyridin-3-yl)-6-methyl-2-[5-methyl-(3,4-dihydro-2H-1-benzopyran-6-yl)]phenyl]acetic acid] | 310 nM |
| COc1ccc(-c2ccc(C(F)(F)F)c(C(OC(C)(C)C)C(=O)O)c2-c2ccc3c(c2)CCCO3)cc1 (stereo not shown) [Example 8, 2-(tert-butoxy)-2-[2-(3,4-dihydro-2H-1-benzopyran-6-yl)-3-(4-methoxyphenyl)-6-(trifluoromethyl)phenyl]acetic acid] | 240 nM |
| CC(C)(C)OC(C(=O)O)c1c(C(F)(F)F)ccc(-c2ccc(=O)n(C3CC3)c2)c1-c1ccc2c(c1)CCCO2 (stereo not shown) [Example 39, 2-(tert-butoxy)-2-[3-(1-cyclopropyl-6-oxo-1,6-dihydropyridin-3-yl)-2-(3,4-dihydro-2H-1-benzopyran-6-yl)-6-(trifluoromethyl)phenyl]acetic acid] | 330 nM |
| CC(C)(C)OC(C(=O)O)c1c(C(F)(F)F)ccc(-c2ccc(=O)n(CCC3CC3)c2)c1-c1ccc2c(c1)CCCO2 (stereo not shown) [Example 31, 2-(tert-butoxy)-2-{3-[1-(2-cyclopropylethyl)-6-oxo-1,6-dihydropyridin-3-yl]-2-(3,4-dihydro-2H-1-benzopyran-6-yl)-6-(trifluoromethyl)phenyl}acetic acid] | 260 nM |
| CC1(C)CC=C(c2c(-c3ccncc3)ccc(C(F)(F)F)c2C(OC(C)(C)C)C(=O)O)CC1 (stereo not shown) [Example 11, 2-(tert-butoxy)-2-[2-(4,4-dimethylcyclohex-1-en-1-yl)-3-(pyridin-4-yl)-6-(trifluoromethyl)phenyl]acetic acid] | 910 nM |
| CC(C)(C)OC(C(=O)O)c1c(C(F)(F)F)ccc(C2=CCCC2)c1-c1ccc2c(c1)CCCO2 (stereo not shown) [Example 3, 2-(tert-butoxy)-2-[3-(cyclopent-1-en-1-yl)-2-(3,4-dihydro-2H-1-benzopyran-6-yl)-6-(trifluoromethyl)phenyl]acetic acid] | 400 nM |
| Cn1cc(-c2ccc(C(F)(F)F)c(C(OC(C)(C)C)C(=O)O)c2-c2ccc3c(c2)CCCO3)cn1 (stereo not shown) [Example 4, 2-(tert-butoxy)-2-[2-(3,4-dihydro-2H-1-benzopyran-6-yl)-3-(1-methyl-1H-pyrazol-4-yl)-6-(trifluoromethyl)phenyl]acetic acid] | 120 nM |
| CC(=O)Nc1ccc(-c2ccc(C(F)(F)F)c(C(OC(C)(C)C)C(=O)O)c2-c2ccc3c(c2)CCCO3)cc1 (stereo not shown) [Example 21, 2-(tert-butoxy)-2-[3-(4-acetamidophenyl)-2-(3,4-dihydro-2H-1-benzopyran-6-yl)-6-(trifluoromethyl)phenyl]acetic acid] | 170 nM |
| CC(C)(C)OC(C(=O)O)c1c(C(F)(F)F)ccc(-c2ccncc2)c1-c1ccc2c(c1)CCCO2 (stereo not shown) [Example 2, 2-(tert-butoxy)-2-[2-(3,4-dihydro-2H-1-benzopyran-6-yl)-3-(pyridin-4-yl)-6-(trifluoromethyl)phenyl]acetic acid] | 250 nM |
| CC(C)(C)OC(C(=O)O)c1c(C(F)(F)F)ccc(-c2ccc(=O)n(CC3CCC3)c2)c1-c1ccc2c(c1)CCCO2 (stereo not shown) [Example 30, 2-(tert-butoxy)-2-{3-[1-(cyclobutylmethyl)-6-oxo-1,6-dihydropyridin-3-yl]-2-(3,4-dihydro-2H-1-benzopyran-6-yl)-6-(trifluoromethyl)phenyl}acetic acid] | 67 nM |
